According to ChEMBL document CHEMBL6103573, “Discovery of novel thienopyridine indole derivatives as inhibitors of tubulin polymerization targeting the colchicine-binding site with potent anticancer activities” (Eur J Med Chem, 2025):
pIC50: −log10 of the molar value. The source made the active and inactive calls. The rule behind the calls is not given here.

Assays:
HGC-27 [1] = assay: Anti-migratory activity against human HGC-27 cells assessed as reduction in wound healing area measured after 24 hrs by wound healing assay; assay type: functional, cell-based; conditions: dose 0.5-1 nmol/L
HGC-27 [2] = assay: Induction of apoptosis in human HGC-27 cells assessed as late apoptotic cells at 0.5 nmol/L incubated for 48 hrs by Annexin V-FITC/propidium iodide staining based flow cytometry analysis (reference value: 3.70 %); assay type: functional
MGC-803 [3] = assay: Antiproliferative activity against human MGC-803 cells assessed as reduction in cell viability at 0.25 to 2.0 nmol/L by MTT assay; assay type: functional, cell-based; conditions: dose 0.25-2 nmol/L, time 6-48 hrs
MGC-803 [4] = assay: Induction of apoptosis in human MGC-803 cells assessed as early apoptotic cells at 0.25 nmol/L incubated for 48 hrs by Annexin V-FITC/propidium iodide staining based flow cytometry analysis (reference value: 0.83 %); assay type: functional
HGC-27 [5] = assay: Induction of apoptosis in human HGC-27 cells assessed as increase in total apoptotic rate at 2 nmol/L incubated for 48 hrs by Annexin V-FITC/propidium iodide staining based flow cytometry analysis relative to control; assay type: functional
HGC-27 [6] = assay: Induction of cell cycle arrest in human HGC-27 cells assessed as downregulation of Cdc2 phosphorylation at Tyr15 residue measured after 48 hrs by Western blot analysis; assay type: functional, cell-based; conditions: dose 0.25-2 nmol/L
HGC-27 [7] = assay: Induction of apoptosis in human HGC-27 cells assessed as late apoptotic cells at 0.25 nmol/L incubated for 48 hrs by Annexin V-FITC/propidium iodide staining based flow cytometry analysis (reference value: 3.70 %); assay type: functional
MGC-803 [8] = assay: Induction of apoptosis in human MGC-803 cells assessed as total apoptotic rate at 2 nmol/L incubated for 48 hrs by Annexin V-FITC/propidium iodide staining based flow cytometry analysis relative to control; assay type: functional
MGC-803 [9] = assay: Antiproliferative activity against human MGC-803 cells assessed as survival rate at 2 nmol/L measured after 6 hrs by MTT assay relative to control; assay type: functional; conditions: read-out: Survival
HGC-27 [10] = assay: Induction of apoptosis in human HGC-27 cells assessed as increase in cleaved PARP expression at 0.25 to 2.0 nmol/L incubated for 48 hrs by Western blotting analysis; assay type: functional, cell-based; conditions: dose 0.25-2 nmol/L
HGC-27 [11] = assay: Antiproliferative activity against human HGC-27 cells assessed as survival rate at 2 nmol/L measured after 6 hrs by MTT assay relative to control; assay type: functional; conditions: read-out: Survival
MGC-803 [12] = assay: Induction of apoptosis in human MGC-803 cells assessed as early apoptotic cells at 2.0 nmol/L incubated for 48 hrs by Annexin V-FITC/propidium iodide staining based flow cytometry analysis (reference value: 0.83 %); assay type: functional
Tubulin (Homo sapiens) = Tubulin (Homo sapiens) (UniProt P68371+Q9H4B7+P0DPH7+P68366+Q13509+Q71U36+P04350+Q3ZCM7+P07437+P68363+Q9BQE3+Q6PEY2+Q13885+Q9BVA1+Q9BUF5); assay: Inhibition of tubulin (unknown origin) polymerization assessed as decrease in fluorescence intensity at 3 micromol/L in the presence of GTP by fluorescence microplate reader; assay type: protein-complex assay; conditions: dose 3.0 µmol/L
HGC-27 [13] = assay: Induction of apoptosis in human HGC-27 cells assessed as increase in cleaved Caspase-9 expression at 0.25 to 2.0 nmol/L incubated for 48 hrs by Western blotting analysis; assay type: functional, cell-based; conditions: dose 0.25-2 nmol/L
MGC-803 [14] = assay: Induction of apoptosis in human MGC-803 cells assessed as increase in cleaved Caspase-9 expression at 0.25 to 2.0 nmol/L incubated for 48 hrs by Western blotting analysis; assay type: functional, cell-based; conditions: dose 0.25-2 nmol/L
HGC-27 [15] = assay: Induction of apoptosis in human HGC-27 cells assessed as increase in nuclei brightness at 0.25 to 2.0 nmol/L incubated for 48 hrs by DAPI staining based analysis; assay type: functional, cell-based; conditions: dose 0.25-2 nmol/L
MGC-803 [16] = assay: Induction of apoptosis in human MGC-803 cells assessed as early apoptotic cells at 1.5 nmol/L incubated for 48 hrs by Annexin V-FITC/propidium iodide staining based flow cytometry analysis (reference value: 0.83 %); assay type: functional
MGC-803 [17] = assay: Induction of apoptosis in human MGC-803 cells assessed as late apoptotic cells at 1.5 nmol/L incubated for 48 hrs by Annexin V-FITC/propidium iodide staining based flow cytometry analysis (reference value: 2.22 %); assay type: functional
HGC-27 [18] = assay: Induction of cell cycle arrest at G2 phase in human HGC-27 cells assessed as increase in p-Histone H3 level at 0.25 to 2.0 nmol/L measured after 48 hrs by Western blot analysis; assay type: functional, cell-based; conditions: dose 0.25-2 nmol/L
HGC-27 [19] = assay: Induction of apoptosis in human HGC-27 cells assessed as early apoptotic cells at 1.0 nmol/L incubated for 48 hrs by Annexin V-FITC/propidium iodide staining based flow cytometry analysis (reference value: 2.04 %); assay type: functional
MGC-803 [20] = assay: Anti-migratory activity against human MGC-803 cells assessed as reduction in wound healing area measured after 24 hrs by wound healing assay; assay type: functional, cell-based; conditions: dose 0.5-1 nmol/L
KYSE-450 = assay: Antiproliferative activity against human KYSE-450 cells assessed as inhibition of cell proliferation incubated for 48 hrs by MTT assay; assay type: functional, cell-based; conditions: KYSE-450, 48 h
HGC-27 [21] = assay: Induction of apoptosis in human HGC-27 cells assessed as late apoptotic cells at 1.5 nmol/L incubated for 48 hrs by Annexin V-FITC/propidium iodide staining based flow cytometry analysis (reference value: 3.70 %); assay type: functional
HGC-27 [22] = assay: Induction of apoptosis in human HGC-27 cells assessed as appearance of round cells at 0.25 to 2.0 nmol/L incubated for 48 hrs by bright field microscopic analysis; assay type: functional, cell-based; conditions: dose 0.25-2 nmol/L
HGC-27 [23] = assay: Induction of cell cycle arrest in human HGC-27 cells assessed as downregulation of Wee1 level measured after 48 hrs by Western blot analysis; assay type: functional, cell-based; conditions: dose 0.25-2 nmol/L
HGC-27 [24] = assay: Anti-migratory activity against human HGC-27 cells assessed as decrease in cell migration at 1 nmol/L measured after 24 hrs by wound healing assay relative to control; assay type: functional; parameters: scale not given: the % may be the effect or the level left
MGC-803 [25] = assay: Antitumor activity against human MGC-803 cells xenografted in female BALB/c-nu nude mouse assessed as tumor inhibition rate at 5 mg/kg, po administrated every other day for 11 times and measured after 21 days relative to control; assay type: functional; conditions: MGC-803, 504 h, time 21 day, read-out: TGI
MCF7 = assay: Antiproliferative activity against human MCF7 cells assessed as inhibition of cell proliferation incubated for 48 hrs by MTT assay; assay type: functional, cell-based; conditions: MCF7, 48 h
HGC-27 [26] = assay: Induction of apoptosis in human HGC-27 cells assessed as appearance of ruptured cells at 0.25 to 2.0 nmol/L incubated for 48 hrs by bright field microscopic analysis; assay type: functional, cell-based; conditions: dose 0.25-2 nmol/L
HGC-27 [27] = assay: Inhibition of colony formation in human HGC-27 cells incubated for 7 days by crystal violet staining based colony formation assay; assay type: functional, cell-based; conditions: dose 0.1-0.5 nmol/L, time 7.0 day
MGC-803 [28] = assay: Induction of cell cycle arrest in human MGC-803 cells assessed as downregulation of Wee1 level measured after 48 hrs by Western blot analysis; assay type: functional, cell-based; conditions: dose 0.25-2 nmol/L
ECa-109 cell line = assay: Antiproliferative activity against human EC109 cells assessed as inhibition of cell proliferation incubated for 48 hrs by MTT assay; assay type: functional, cell-based; conditions: ECa-109, 48 h
HUVEC = assay: Anti-angiogenesis activity in HUVEC cells assessed as reduction in cell viability by measuring survival rate at 2 nmol/L incubated for 24 hrs by MTT assay relative to control; assay type: functional; conditions: Homo sapiens, read-out: Survival

With CN(c1ccc2c(ccn2C)c1)c1nc(N2CCCC2)nc2sccc12 the Activity (HGC-27 [1]) was “Dose-dependent-effect”, the Activity (HGC-27 [2]) was 3.5% and the Activity (MGC-803 [3]) was “Time-dependent-effect”. For the same compound, the Activity (MGC-803 [4]) was 1.28%, the Activity (HGC-27 [5]) was 14% and the Activity (HGC-27 [6]) was “Dose-dependent-effect”. It also gave an Activity (HGC-27 [7]) of 3.14%, an Activity (MGC-803 [8]) of 63% and a viability at 0.002 µM (MGC-803 [9]) of 86%. For the same compound, the Activity (HGC-27 [10]) was “Active”, the viability at 0.002 µM (HGC-27 [11]) was 83% and the Activity (MGC-803 [12]) was 54.93%. The inhibition (Tubulin (Homo sapiens)) was “Active”, the Activity (HGC-27 [13]) was “Active” and the Activity (MGC-803 [14]) was “Active”. The Activity (HGC-27 [15]) was “Active”, the Activity (MGC-803 [16]) was 43.09% and the Activity (MGC-803 [17]) was 6.33%. For the same compound, the Activity (HGC-27 [18]) was “Active”, the Activity (HGC-27 [19]) was 11.52% and the Activity (MGC-803 [20]) was “Dose-dependent-effect”. For the same compound, the pIC50 (KYSE-450) was 8.50, the Activity (HGC-27 [21]) was 5.22% and the Activity (HGC-27 [22]) was “Active”. The Activity (HGC-27 [23]) was “Dose-dependent-effect”, the Activity (HGC-27 [24]) was 17% and the inhibition in vivo at 5 mg/kg (MGC-803 [25]) was 45.8%. The pIC50 (MCF7) was 8.73, the Activity (HGC-27 [26]) was “Active” and the inhibition (HGC-27 [27]) was “Dose-dependent-effect”. The Activity (MGC-803 [28]) was “Dose-dependent-effect”, the pIC50 (ECa-109 cell line) was 8.66 and the viability at 0.002 µM (HUVEC) was 59.2%.
